Experiments:
[1] = comparison given in brackets; cited from earlier work
[2] = test system: adult subjects with relapsing MS; test: Phase III OPTIMUM study, safety and treatment discontinuation
Experimental: A prospective, multicenter, randomized, double-blind, active controlled, parallel-group, phase III, superiority study (Phase III OPTIMUM study) was conducted.
Subjects had active disease evidenced by one or more MS attacks with onset within the period of 12 to 1 months prior to baseline EDSS assessment, or by two or more MS attacks with onset within the 24 to 1 months prior to baseline EDSS assessment, or with one or more gadolinium-enhancing (Gd+) lesion(s) of the brain on an MRI performed within 6 months prior to baseline EDSS assessment. Enrolled subjects were ambulatory with an EDSS score of up to 5.5 inclusive. The subjects were treatment-naïve (i.e., no MS disease-modifying therapy received at any time in the past) or previously treated with interferon (IFN) β-1a, IFN β-1b, glatiramer acetate, dimethyl fumarate, or natalizumab.
The treatment period consisted of an up-titration period (from Day 1 to 14) and a maintenance period (Day 15 until EOT).
To reduce the first-dose effect of ponesimod, an up-titration scheme was implemented from Day 1 to Day 14: • Days 1 and 2; 2 mg. • Days 3 and 4; 3 mg. • Days 5 and 6; 4 mg. • Day 7; 5 mg. • Day 8; 6 mg. • Day 9; 7 mg. • Day 10; 8 mg. • Day 11; 9 mg. • Days 12, 13, and 14; 10 mg. • Day 15 until EOT; 20 mg.
The Safety Set (SAF) included all randomized subjects who received at least one dose of study treatment. Subjects were analyzed based on actual treatment taken, not randomized treatment.

primary mouse OPCs = test: agarose drop migration assay; format: cell-based; settings: 3000 nM; after 5 days; normalized to 0.1% DMSO
Experimental: The effects of ponesimod, a selective S1P1 receptor agonist, and A971432, a selective S1P5 receptor agonist, on oligodendrocyte precursor cell (OPC) migration and differentiation were evaluated. Nine concentrations were tested (logarithmic dilutions ranging from 0.3 nM to 3000 nM, n=6 per concentration). Fingolimod phosphate (P-FTY720, 3000 nM, n=6) was included as a positive control, 0.1% DMSO was included (min.one/plate) as a negative control. Primary mouse OPCs were harvested on postnatal day 0 or 1 and mixed glia cultures were maintained for 14 days. Primary OPCs were then purified using the shake-off method, and used for either a migration assay, or a differentiation assay, as detailed below. To harvest primary mouse OPCs, cortices are isolated from mouse pups on postnatal day 0 or 1 and placed in ice-cold Dulbecco's Modified Eagle Medium (DMEM) (Sigma Aldrich, Overijse, BE). The cortices are homogenized and centrifuged for 5 minutes at 300 G. The supernatant is removed, and a papain solution is added for 30 minutes (125 uL DMEM solution per brain containing 20 units/ml papain and 40 μg/ml DNase, at 37 degrees). Digestion is inactivated by adding 9 ml cold DMEM. The solution is then centrifuged for 5 minutes at […]. The supernatant is carefully removed, and the pellet is resuspended in 2-5 ml culture medium (DMEM with 10% fetal calf serum (Biowest, Nuaillé, FR) and 1% pen/strep (Sigma Aldrich, Overijse, BE)). […] Cell suspension is divided over PLL (Sigma Aldrich, Overijse, BE)-coated flasks (2 brains per flask) and DMEM is added to a final volume of 10 ml. DMEM is replaced on day 4, 7, and 11. On day 7 and 11, insulin (Sigma Aldrich, Overijse, BE) is added to the medium (5μg/ml). On day 14, OPCs are separated from astrocytes by the shake-off method: flasks are placed on a shaker for 45 minutes at 75 rpm (37 degrees). […] The extent of cell migration is then measured after 5 days using Incucyte imaging analysis and fluorescent endpoint staining. For each well, the 15-20 cells that migrated the furthest away from the agarose drop are measured and averaged. […]

[3] = Safety Set, ponesimod 20 mg, teriflunomide 14 mg
[4] = ponesimod 20 mg, teriflunomide 14 mg

For `CCCCCCCCc1ccc(CCC(N)(CO)CO)cc1` [fingolimod], the “ECG HR effect: nadir” value [1] is given as about 6 h.

In the case of `CCc1cc(/C(C)=N/OCc2ccc(C3CCCCC3)c(C(F)(F)F)c2)ccc1CN1CC(C(=O)O)C1` [siponimod], the “ECG HR effect: nadir” value [1] is given as 3 to 4 h.

With `C/C(O)=C(\C#N)C(=O)Nc1ccc(C(F)(F)F)cc1` [teriflunomide] the “subjects with asymptomatic post-dose HR≤40 bpm” value ([2]; Day 1, all with pre-treatment HR<55 bpm) was “none”, the “AEs leading to premature discontinuation of study drug, SOC Eye disorders” value [2, 3] was 0 n and the “AEs leading to premature discontinuation of study drug, SOC Respiratory, thoracic and mediastinal disorders” value [2, 3] was 0 n. For the same compound, the “AEs leading to premature discontinuation of study drug, SOC Vascular disorders” value [2, 3] was 0 n, the “Subject with at least one AE leading to study drug discontinuation” value [2, 3] was 6.0% and the “Subject with at least one Serious AE” value [2, 3] was 8.1%. For the same compound, the “Subject with at least one treatment-emergent AE” value [2, 3] was 88.2%, the “Treatment-emergent AESI: Hepatobiliary disorders/Liver enzyme abnormality” value [2, 3] was 14.5% and the “Treatment-emergent AESI: Hypertension” value [2, 3] was 9.0%. For the same compound, the “Treatment-emergent AESI: Pulmonary events” value [2, 3] was 2.7%, the “mean heart rate reduction compared to pre-dose” value ([2]; at 2-hours post dose, Day 1) was −1.7 bpm and the “AESI heart rate and rhythm: Atrioventricular block first degree” value ([2]; on Day 1, Safety Set) was 0 n. The “AESI heart rate and rhythm: Bradycardia” value ([2]; on Day 1, Safety Set) was 0 n, the “AESI heart rate and rhythm: Bundle branch block left” value ([2]; on Day 1, Safety Set) was 0 n and the “AESI heart rate and rhythm: Bundle branch block right” value ([2]; on Day 1, Safety Set) was 0 n. For the same compound, the “AESI heart rate and rhythm: Defect conduction intraventricular” value ([2]; on Day 1, Safety Set) was 0 n, the “AESI heart rate and rhythm: Sinus arrhythmia” value ([2]; on Day 1, Safety Set) was 0 n and the “AESI heart rate and rhythm: Sinus bradycardia” value ([2]; on Day 1, Safety Set) was 0 n. For the same compound, the “AESI effect on heart rate and rhythm (including hypotension): Subjects with at least one AE” value ([2]; on Day 1, Safety Set, ponesimod arm (2 mg on Day 1), teriflunomide 14 mg) was 0.4%, the “TEAE ALT increased” value [2, 4] was 9.4% and the TEAE headache [2, 4] was 12.7%. For the same compound, the TEAE nasopharyngitis [2, 4] was 16.8%, the “TEAE upper respiratory tract infection” value [2, 4] was 10.4% and the “proportion of subjects who experienced ALT increase>3×ULN” value [2, 4] was 8.3%. The “proportion of subjects who experienced ALT increase>8×ULN” value [2, 4] was 2.1% and the “subjects discontinued due to AEs or tolerability related reasons” value [2, 4] was 2.5%.

In the case of fingolimod phosphate, the migration distance (primary mouse OPCs) is reported as “significantly decreased migration distance”.

Reference: patent publication US20240261267A1, “METHODS FOR TREATING MULTIPLE SCLEROSIS” (Vanda Pharmaceuticals Inc., priority 2021, published 2024)
